Experimental data as given in US6476059B1, “Use of polycyclic 2-aminothiazole systems for the treatment of obesity” (Aventis Pharma Deutschland GmbH, priority 1999, dated 2002).

Experiments:
male NMRI mice = test: Anorectic effect: cumulative condensed milk consumption after gavage; type: in vivo; settings: oral dose 50 mg/kg by gavage, feed withdrawn for 24 hours; for Reduction in the cumulative milk consumption as % of the controls: compared with untreated control animals; for cumulative milk consumption by the treated animals: condensed milk offered 30 minutes after administration, consumption determined every half hour for 7 hours
Experimental: The anorectic effect was tested on male NMRI mice. After withdrawal of feed for 24 hours, the test product was administered by gavage. The animals were housed singly and had free access to drinking water and, 30 minutes after administration of the product, they were offered condensed milk. The consumption of condensed milk was determined, and the general behavior of the animals was inspected, every half hour for 7 hours. The measured milk consumption was compared with that of untreated control animals.

Structure (SMILES)	melting point [°C]	Reduction in the cumulative milk consumption as % of the controls (male NMRI mice) [%]	cumulative milk consumption by the treated animals (male NMRI mice)
CS(=O)(=O)c1ccc2c(c1)-c1nc(N)sc1C2.Cl	> 230	–	–
Br.CN(C)c1nc2c(s1)Cc1cc(C#N)ccc1-2 [Example 2, 2-Dimethylamino-8H-indeno[1,2-d]thiazole-6-carbonitrile hydrobromide]	> 300	85	5/0.76 ml
N#CNc1nc2c(s1)Cc1cc(Cl)ccc1-2 [Example 4, 6-Chloro-8H-indeno[1,2-d]thiazol-2-yl-cyanamide]	225	–	–

Now from value to compound, other results behind:

melting point [°C]	Structure (SMILES)	Reduction in the cumulative milk consumption as % of the controls (male NMRI mice) [%]	cumulative milk consumption by the treated animals (male NMRI mice)
295	O=CNc1nc2c(s1)Cc1cc(Cl)ccc1-2 [Example 6, N-(6-chloro-8H-indeno[1,2-d]thiazol-2-yl)formamide]	77	5/0.96 ml
210	N=C(Nc1ccccc1)Nc1nc2c(s1)Cc1cc(Cl)ccc1-2 [Example 7, N-(6-Chloro-8H-indeno[1,2-d]thiazol-2-yl)-N′-phenylguanidine]	–	–
258	CNc1nc2c(s1)Cc1cc(OCC(F)(F)C(F)(F)F)ccc1-2.Cl [Example 18, Methyl[6-(2,2,3,3,3-pentafluoropropoxy)-8H-indeno[1,2-d]thiazol-2-yl]amine hydrochloride]	90	5/0.38 ml
225	CNc1nc2c(s1)Cc1cc(-c3cccnc3)ccc1-2.Cl [Example 26, Methyl(6-pyridin-3-yl-8H-indeno[1,2-d]thiazol-2-yl)amine hydrochloride]	77	5/0.68 ml
174	Cc1cccc(Oc2ccc3c(c2)Cc2sc(N)nc2-3)c1.Cl [Example 27, 6-m-Tolyloxy-8H-indeno[1,2-d]thiazol-2-yl-amine hydrochloride]	79	5/0.74 ml
